Laboratory results reported in US5192756A, “Aminosterol antibiotic” (The Children's Hospital of Pennsylvania, priority 1992, dated 1993).
Converted amounts (≈) assume the structure as drawn. No end group written: not given here.

Assays:
Paramecium caudatum = test: Minimal disruptive concentration, Paramecium caudatum; format: cell-based; conditions: for Minimal Inhibitory Concentration (minimal disruptive concentration for the protozoa) / MIC: 1% trypticase soy broth, light microscopy for ten minutes; for MIC: read-out: Minimal Inhibitory Concentration (minimal disruptive concentration for the protozoa)
Method: (§1) Squalamine was assayed in vitro against several microbial organisms to evaluate its spectrum of activity.
(§2) Initial sample concentrations were 2 mg/ml in 250 mM sodium acetate pH 6.6, 11.2 mM HCl, except taurolithocholic acid 3-sulfate which was 2 mg/ml in 50 mM sodium acetate, and squalamine to which HCl was not added because it was acidic following the last step of purification. Spermidine HCl, taurolithocholic acid 3-sulfate, melittin, holothurin and ampicillin were purchased from Sigma (St. Louis, Miss.). CHAPS (3-[(3-cholamidopropyl)dimethylammonio]-1-propane sulfonate dihydrate) was purchased from Aldrich (Milwaukee, Wis.). Conessine was purchased from Aldrich Rare Chemicals Division (Milwaukee, Wis.). Magainin-II amide and CPF-amide were made by Magainin Pharmaceuticals, Inc. (Plymouth Meeting, Penn.). The CPF peptide used in the assay has the sequence […]-NH2. (Richter, K., et al., J. Biol. Chem. 261, 3676-3680 (1986).
(§3) Minimal disruptive concentration (the concentration at which physical disruption of the protozoa occurred) was determined for the protozoa by adding […] of sample (in sodium acetate as above) to […] of 1% trypticase soy broth containing P. caudatum (Nasco, Fort Atkinson, Wiss,). Organisms were observed by light microscopy for ten minutes.

E. coli = test: Minimal inhibitory concentration, E. coli; format: cell-based; conditions: E. coli ATCC 25922, 1/2×TSB, 37° C., 18 to 24 hours; for MIC: Escherichia coli, ATCC25922
Method: as §1
(§4) Minimal inhibitory concentrations for the bacteria and yeast were determined by incubating 0.9-11×10^5 colony-forming units/ml of log-phase organisms in 1/2×tryptica soy broth (TSB) with increasing concentrations of sample in static 96-2311 microtiter plates (Corning, Inc., Corning, N.Y.) at 37° C. for 18 to 24 hours. The minimal inhibitory concentration is the concentration of sample at which no growth was observed. Control incubation in the absence of […] served to set a baseline value.
as §2

Serratia marcescens = test: Minimal inhibitory concentration, Serratia marcescens; format: cell-based; conditions: Serratia marcescens ATCC 8100, 1/2×TSB, 37° C., 18 to 24 hours; for MIC: ATCC8100
Method: as §1, §4, §2

Staph. aureus = test: Minimal inhibitory concentration, Staph. aureus; format: cell-based; conditions: Staph. aureus ATCC 29213, 1/2×TSB, 37° C., 18 to 24 hours; for MIC: Staphylococcus aureus, ATCC29213
Method: as §1, §4, §2

Pseudomonas aeruginosa = test: Minimal inhibitory concentration, Pseudomonas aeruginosa; format: cell-based; conditions: Pseudomonas aeruginosa ATCC 27853, 1/2×TSB, 37° C., 18 to 24 hours; for MIC: ATCC27853
Method: as §1, §4, §2

Candida albicans = test: Minimal inhibitory concentration, Candida albicans; format: cell-based; conditions: for Minimal Inhibitory Concentration / MIC: Candida albicans ATCC 14053, 1/2×TSB, 37° C., 18 to 24 hours; for MIC: ATCC14053
Method: as §1, §4, §2

Strep. faecalis = test: Minimal inhibitory concentration, Strep. faecalis; format: cell-based; conditions: Strep. faecalis ATCC 29212, 1/2×TSB, 37° C., 18 to 24 hours; for MIC: Enterococcus faecalis, ATCC29212
Method: as §1, §4, §2

Proteus vulgaris = test: Minimal inhibitory concentration, Proteus vulgaris; format: cell-based; conditions: Proteus vulgaris ATCC 13315, 1/2×TSB, 37° C., 18 to 24 hours; for MIC: ATCC13315
Method: as §1, §4, §2

human erythrocytes = test: Hemolytic activity against human erythrocytes; format: cell-based
Method: (§5) Because of its structural resemblance to steroidal detergents, squalamine was assayed for its hemolytic activity against human erythrocytes.
(§6) Each sample was diluted in H2 O and was added to a 10% (vol/vol) suspension of human erythrocytes in phosphate buffered saline (PBS). Erythrocytes were collected with heparin and washed once in 1×PBS before the assay. Samples were incubated at 37° C. for ten minutes, centrifuged at 12,000× g for one minute, and the OD350 of the supernatant was measured. Addition of Triton X-100 (final concentration 0.1%) defined 100% hemolysis.

[1] = test system: several microbial organisms; test: In vitro antimicrobial spectrum (bacteria, fungi, protozoa), in words; format: cell-based; conditions: for antibiotic activity (in words): bacteria, fungi, protozoa, concentration range studied
Method: as §1, §4, §2, §3

[2] = Hemolytic activity against human erythrocytes; format: cell-based; conditions: human; 92 μg/ml; 10% erythrocytes in PBS, 37° C., ten minutes; Triton X-100 = 100%
Method: as §5, §6

E. coli D31 = test: Protease resistance of antimicrobial activity (proteinase K); format: in vitro ADME; conditions: proteinase K 2 mg/ml, one hour, 37° C.; E. coli D31 lawn
Method: Proteinase K (final concentration 2 mg/ml) was added to 0.2 μg/μl squalamine or 0.8 μg/μl magainin II amide in 1×phosphate-buffered saline. After a one hour incubation at 37° C., 2 μl of each sample was applied to the lawn of E. coli D31.

Compound	Minimal Inhibitory Concentration (minimal disruptive concentration for the protozoa) (Paramecium caudatum)	Minimal Inhibitory Concentration (E. coli)	Minimal Inhibitory Concentration (Serratia marcescens)	Minimal Inhibitory Concentration (Staph. aureus)	Minimal Inhibitory Concentration (Pseudomonas aeruginosa)	Minimal Inhibitory Concentration (Candida albicans)	Minimal Inhibitory Concentration (Strep. faecalis)	Minimal Inhibitory Concentration (Proteus vulgaris)	MIC (Paramecium caudatum)	MIC (E. coli)	MIC (Serratia marcescens)	MIC (Staph. aureus)	MIC (Pseudomonas aeruginosa)	MIC (Candida albicans)	MIC (Strep. faecalis)	MIC (Proteus vulgaris)	hemolysis at 10 min [2]	antibiotic activity (in words) [1]	other results
CC[C@H](C)[C@H](NC(=O)CN)C(=O)NCC(=O)N[C@@H](C)C(=O)N[C@H](C(=O)N[C@@H](CC(C)C)C(=O)N[C@@H](CCCCN)C(=O)N[C@H](C(=O)N[C@@H](CC(C)C)C(=O)N[C@H](C(=O)N[C@H](C(=O)NCC(=O)N[C@@H](CC(C)C)C(=O)N1CCC[C@H]1C(=O)N[C@@H](C)C(=O)N[C@@H](CC(C)C)C(=O)N[C@H](C(=O)N[C@@H](CO)C(=O)N[C@@H](Cc1c[nH]c2ccccc12)C(=O)N[C@H](C(=O)N[C@@H](CCCCN)C(=O)N[C@@H](CCCNC(=N)N)C(=O)N[C@@H](CCCCN)C(=O)N[C@@H](CCCNC(=N)N)C(=O)N[C@@H](CCC(N)=O)C(=O)N[C@@H](CCC(N)=O)C(N)=O)[C@@H](C)CC)[C@@H](C)CC)[C@@H](C)O)[C@@H](C)O)C(C)C)C(C)C [Melittin]	2 to 4 µg/mL	8 to 16 µg/mL	> 250 µg/mL	8 to 16 µg/mL	16 to 31 µg/mL	16 to 31 µg/mL	4 to 16 µg/mL	16 to 31 µg/mL											antibiotic versus hemolytic concentration / selectivity (in words) (human erythrocytes; antibiotic activity compared with erythrocyte disruption): fall within a similar concentration range
C[C@H]1[C@H]2CC[C@H]3[C@@H]4CC=C5C[C@@H](N(C)C)CC[C@]5(C)[C@H]4CC[C@]23CN1C [Conessine]									16 to 33 µg/mL (≈ 44.9 to 92.5 µM)	> 500 µg/mL	> 500 µg/mL	> 500 µg/mL	> 500 µg/mL	31 to 62 µg/mL (≈ 86.9 to 174 µM)	> 500 µg/mL	> 500 µg/mL	< 0.5%		antiprotozoan activity (in words) (Paramecium caudatum): exhibits antifungal (Candida) and antiprotozoan (Paramecium caudatum) activity; antibacterial activity (in words) ([1]; bacteria of Table I): lacks antibacterial activity; antifungal activity (in words) (Candida albicans; Candida): exhibits antifungal (Candida) and antiprotozoan (Paramecium caudatum) activity
NCCCCNCCCN [Spermidine]									> 260 µg/mL	> 500 µg/mL	> 500 µg/mL	> 500 µg/mL	> 500 µg/mL	> 500 µg/mL	250 to 500 µg/mL (≈ 1720 to 3440 µM)	> 500 µg/mL	< 0.5%	inactive as an antibiotic	
CC1(C)S[C@@H]2[C@H](NC(=O)[C@H](N)c3ccccc3)C(=O)N2[C@H]1C(=O)O [Ampicillin, ampicillin]									> 65 µg/mL	2 to 4 µg/mL (≈ 5.72 to 11.4 µM)	4 to 62 µg/mL (≈ 11.4 to 177 µM)	1 µg/mL (≈ 2.86 µM)	62 to 125 µg/mL (≈ 177 to 358 µM)	> 125 µg/mL	< 0.25 µg/mL	8 to 16 µg/mL (≈ 22.9 to 45.8 µM)	< 0.5%		
C[C@H](CCC(=O)NCCC[N+](C)(C)CCCS(=O)(=O)[O-])[C@H]1CC[C@H]2[C@@H]3[C@H](O)C[C@@H]4C[C@H](O)CC[C@]4(C)[C@H]3C[C@H](O)[C@]12C [CHAPS, 3-[(3-cholamidopropyl)dimethylammonio]-1-propane sulfonate dihydrate]									> 260 µg/mL	> 500 µg/mL	> 500 µg/mL	> 500 µg/mL	> 500 µg/mL	> 500 µg/mL	250 to 500 µg/mL	> 500 µg/mL	< 0.5%	inactive as an antibiotic	
Magainin II	33 to 65 µg/mL	31 to 62 µg/mL	> 250 µg/mL	> 250 µg/mL	31 to 62 µg/mL	125 to 250 µg/mL	> 250 µg/mL	125 to 250 µg/mL											antimicrobial activity after proteinase K digestion (E. coli D31): lost all activity on proteinase K digestion
C[C@H](CCC(=O)NCCS(=O)(=O)O)[C@H]1CC[C@H]2[C@@H]3CC[C@@H]4C[C@H](OS(=O)(=O)O)CC[C@]4(C)[C@H]3CC[C@]12C [Taurolithocholic Acid 3-sulfate, taurolithocholic acid 3-sulfate]									> 260 µg/mL	> 500 µg/mL	> 500 µg/mL	> 500 µg/mL	> 500 µg/mL	> 500 µg/mL	> 500 µg/mL	> 500 µg/mL		inactive as an antibiotic	
GFGSFLGKALKAALKIGANALGGSPQQ-NH2 [CPF, caerulein percursor fragment, Xenopus antimicrobial peptide]	4 to 8 µg/mL	8 to 16 µg/mL	> 125 µg/mL	8 to 16 µg/mL	8 to 31 µg/mL	62 to 125 µg/mL	31 to 62 µg/mL	62 to 125 µg/mL											hemolysis (human erythrocytes; 92 μg/ml, 10% erythrocytes in PBS, 37° C., ten minutes, Triton X-100 = 100%, 10 min): 3%
